Experimental data published in patent publication US9675664B2, “Compositions, formulations and methods of treating preeclampsia-type disorders of pregnancy” (Women & Infants' Hospital of Rhode Island, priority 2009, dated 2017).

What was measured:
[1] = endogenous TTR; cited from earlier work
[2] = test system: endothelial cells (EC) and trophoblasts (HTR) crosstalk; experiment: In vitro endothelial cell-trophoblast co-culture tube (vacuole) formation assay on matrigel with pregnancy serum; type: cell-based, human; settings: for rescue of mild PE serum induced disrupted EC-HTR8 crosstalk (tube assay): mild preeclampsia serum (mPE), TTR preincubated at 0.1, 1.0, 10 μg/ml of serum; for rescue of severe PE serum induced disrupted EC-HTR8 crosstalk (tube assay): severe preeclampsia serum (sPE), TTR preincubated at 0.1, 1.0, 10 microgram/ml of serum
From the text: The in vitro assay described in this example is based on the premise that during normal pregnancy, fetal derived trophoblasts called the “invasive cytotrophoblasts” invade the maternal decidua and the endothelial cell lined spiral arteries. This phenomenon can be restructured using serum from pregnancy as physiological milieu and culturing human umbilical vein endothelial cells and trophoblasts on basement membrane such as matrigel. […] For additional information see U.S. Provisional Patent Application No. 61/063,491 filed Feb. 4, 2008 and/or Kalkunte, In Vitro and In Vivo Evidence for Lack of Vascular Remodeling by Third Trimester Trophoblasts, Placenta 29: 871-78 (2008).
Recombinantly produced TTR (detected by SDS-PAGE electrophoresis and purity 96%) was obtained from AbD Serotec, Raleigh, N.C. 27604, USA. Recombinant TTR obtained in lyophilized form was reconstituted with sterile phosphate-saline buffer to obtain a final concentration of 1 mg/ml and maintained at >pH 7.0. The solutions were stored as aliquots frozen at −80° C. until use. Thirty minutes prior to experimentation, the aliquots of TTR were thawed, then mixed with serum and incubated at 37° C. for 30 minutes.
The in vitro method further includes incubating a co-culture of human endothelial cells and human trophoblast cells in the presence of serum or plasma obtained from a pregnant person for a period of time sufficient to permit vacuolization (also referred to as “capillary formation” and “tube formation” in FIGS. 2-4), and after incubation determining whether substantial vacuolization in the co-culture has occurred by quantification as described in Example 3.
During pregnancy, angiogenesis is characterized by spiral artery remodeling for which trophoblast invasion into these maternal blood vessels is a prerequisite. The data of FIG. 2 show an in vitro model of interaction of trophoblasts and endothelial cells that mimics spiral artery remodeling. Specifically, 2.5×10^4 endothelial cells labeled red and 2.5×10^4 trophoblasts, labeled green, were co-cultured on matrigel coated plates and stimulated with either NPS (normal pregnancy serum) or severe PES (Preeclampsia Serum) as described above. In the absence of exogenous TTR, serum from severe (FIG. 2 Panel B #5 and C #9) preeclampsia patients blocks the “cross-talk” between endothelial-trophoblast cells, causing obvious differences in architecture as compared to the same cells stimulated under the same conditions with NPS serum (sample L1045; FIG. 2 Panel A, #1).
Briefly, 2.5×10^4 endothelial cells labeled red and 2.5×10^4 trophoblasts, each from different trimesters labeled green (FIG. 2), were co-cultured on matrigel coated plates and stimulated with either NPS or mild PES as described above. […] The number of vacuoles (or tubes) formed per sample were counted and represented in the graph (FIG. 4, mPE with and without TTR). […] Statistical significance of experimental differences was assessed using Student's paired t-test. […]
The in vitro studies conducted in Example 2 were quantified by counting the number of tube like structures termed as “vacuole” under fluorescence microscope (Nikon Eclipse TS 100 coupled with CCD camera) in four different fields at 4× magnification. […]

[3] = test system: Pregnant IL-10−/− mice; experiment: In vivo rescue of PE serum induced preeclampsia-like symptoms in pregnant IL-10-/- mice
Protocol: Recombinantly produced TTR (detected by SDS-PAGE electrophoresis and purity 96%) was obtained from AbD Serotec, Raleigh, N.C. 27604, USA. Recombinant TTR obtained in lyophilized form was reconstituted with sterile phosphate-saline buffer to obtain a final concentration of 1 mg/ml and maintained at >pH 7.0. The solutions were stored as aliquots and frozen at −80° C. until use. Thirty minutes prior to experimentation, the aliquots of TTR were thawed, then mixed with 100 μl of PE serum samples. Pregnant IL-10^−/− mice (C57BL/6, Jackson Labs, USA) were then injected intraperitoneally on gestational day (g.d.) 10 at a TTR dose of 20 microgram/mouse. The gestational period in mice is 20 days. Similarly, 100 μl PE serum or normal pregnancy serum was administered to different set of animals as control. On g.d.16/17, urine and serum samples were collected from each mouse, and blood pressure measurements were taken. Blood pressure was taken by an established tail-cuff method which utilizes a programmed sphygmomanometer. The animals adapted for 5 min using a warming test chamber (IITC Life Science Inc, Woodland Hills, Calif.) at controlled temperature (35° C.). The measurements were carried out on day 17 of pregnancy using DigiMed blood pressure analyzer, (MicroMed, Louisville, Ky., 40222-4683). Each measurement of blood pressure is an average of three readings at 1 min intervals from a number of animals (˜3-5 each). Systolic blood pressure was compared among non-pregnant and pregnant mice. All animals were age matched. Data was analyzed using Digi-Med® System Integrator™ Model 400 (DMSI-400).
Total urinary albumen was measures using Albumin (mouse) ELISA kit (ALPCO Diagnostics, Salem, N.H.) and urinary creatinine was measured using Metra Creatinine Kit (Quidel Corporation, San Diego, Calif.). Protinuria as represented as a ration of urinary albumin to creatinine (expressed as μg/mg). (Baseline values seen in mice range from 100-400 μg/mg.)
On g.d. 17 the mice were euthanized, the uterine horns were extracted, photographed and pregnancy outcomes were recorded. […] 10 in IL10^−/− mice. The effects in response to only one administration of serum (100 μl) were evaluated on g.d. 17.

[4] = sPE serum 100 μl i.p. on g.d. 10 with co-administered TTR 20 microgram/mouse, evaluated g.d. 17

Row | Substance | half life [1] | rescue of mild PE serum induced disrupted EC-HTR8 crosstalk (tube assay) [2] | rescue of mild PE serum induced disrupted EC-HTR8 crosstalk (tube assay) ([2]; listed as Recombinant TTR) | effect on NPS mediated tube formation ([2]; normal pregnancy serum (NPS), TTR 0.1, 1.0, 10 microgram/ml of serum) | rescue of severe PE serum induced disrupted EC-HTR8 crosstalk (tube assay) [2] | rescue of severe PE serum induced disrupted EC-HTR8 crosstalk (tube assay) ([2]; listed as Recombinant TTR) | TTR levels in mouse serum (SELDI-TOF relative intensity) ([3]; reduction induced by severe preeclampsia serum, FIG. 6) | intrauterine growth restriction (fetal weight) [3, 4] | systolic blood pressure (hypertension) [3, 4] | proteinuria (urinary albumin to creatinine ratio) ([3]; sPE serum 100 μl i.p. on g.d. 10 with co-administered TTR 20 microgram/mouse, urine g.d. 16/17)
1 | transthyretin [endogenous TTR] | approximately 2 days | – | – | – | – | – | – | – | – | –
2 | transthyretin [recombinant TTR] | – | substantially rescues | rescues mPE serum induced disruption | no significant effect | substantially rescues | rescues sPE serum induced disruption | rescued | rescues sPE serum induced anomalies | rescues sPE serum induced anomalies | rescues sPE serum induced anomalies
